Source: ChEMBL document CHEMBL5390284, “Shikimate-Derived Meroterpenoids from the Ascidian-Derived Fungus Amphichorda felina SYSU-MS7908 and Their Anti-Glioma Activity” (J Nat Prod, 2023)
Blank lines part the entries; values can stand above or below the compound they belong to. Active and inactive are the calls of the source. The rule behind the calls is not given here.

How the values were obtained:
U-251 [1] = assay: Antiproliferative activity against human U-251 cells assessed as inhibition of cell growth at 100 uM incubated for 48 hrs by MTT assay; assay type: functional
U-87 MG [2] = assay: Antiproliferative activity against human U-87 MG cells assessed as inhibition of cell growth at 100 uM incubated for 48 hrs by MTT assay; assay type: functional
T98G [3] = assay: Antiproliferative activity against human T98G cells assessed as inhibition of cell growth at 100 uM incubated for 48 hrs by MTT assay; assay type: functional, cell-based
U-251 [4] = assay: Antiproliferative activity against human U-251 cells assessed as inhibition of cell growth incubated for 48 hrs by MTT assay; assay type: functional, cell-based; settings: U-251, 48 h
U-87 MG [5] = assay: Induction of apoptosis in human U-87 MG cells assessed as total apoptotic cells at 5 uM incubated for 48 hrs by Annexin V-FITC/PI staining based flow cytometry analysis (reference value: 16 +/- 1%); assay type: functional, U-87MG ATCC
U-87 MG [6] = assay: Induction of apoptosis in human U-87 MG cells assessed as late apoptotic cells at 2 uM incubated for 48 hrs by Annexin V-FITC/PI staining based flow cytometry analysis (reference value: 11 +/- 1%); assay type: functional, U-87MG ATCC
U-87 MG [7] = assay: Antiproliferative activity against human U-87 MG cells assessed as inhibition of cell growth incubated for 48 hrs by MTT assay; assay type: functional, cell-based, U-87MG ATCC
U-251 [8] = assay: Induction of apoptosis in human U-251 cells assessed as total apoptotic cells at 5 uM incubated for 48 hrs by Annexin V-FITC/PI staining based flow cytometry analysis (reference value: 2.8 +/- 0.3%); assay type: functional
U-251 [9] = assay: Induction of apoptosis in human U-251 cells assessed as late apoptotic cells at 2 uM incubated for 48 hrs by Annexin V-FITC/PI staining based flow cytometry analysis (reference value: 1.3 +/- 0.6%); assay type: functional
U-87 MG [10] = assay: Induction of apoptosis in human U-87 MG cells assessed as total apoptotic cells at 10 uM incubated for 48 hrs by Annexin V-FITC/PI staining based flow cytometry analysis (reference value: 16 +/- 1%); assay type: functional, U-87MG ATCC
T98G [11] = assay: Inhibition of cell migration in human T98G cells incubated for 48 hrs by inverted optical microscope based wound healing assay; assay type: functional
U-251 [12] = assay: Induction of apoptosis in human U-251 cells assessed as early apoptotic cells at 5 uM incubated for 48 hrs by Annexin V-FITC/PI staining based flow cytometry analysis (reference value: 1.5 +/- 0.4 %); assay type: functional
U-251 [13] = assay: Inhibition of cell invasion in human U-251 cells at 5 to 10 uM incubated for 48 hrs by crystal violet staining based fluorescent microscope analysis; assay type: functional; settings: dose 5-10 µM
U-87 MG [14] = assay: Induction of apoptosis in human U-87 MG cells assessed as early apoptotic cells at 2 uM incubated for 48 hrs by Annexin V-FITC/PI staining based flow cytometry analysis (reference value: 1.1 +/- 0.6 %); assay type: functional, U-87MG ATCC
T98G [15] = assay: Induction of apoptosis in human T98G cells assessed as total apoptotic cells at 10 uM incubated for 48 hrs by Annexin V-FITC/PI staining based flow cytometry analysis (reference value: 6.4 +/- 0.8 %); assay type: functional
U-251 [16] = assay: Inhibition of cell migration in human U-251 cells incubated for 48 hrs by inverted optical microscope based wound healing assay; assay type: functional
T98G [17] = assay: Induction of apoptosis in human T98G cells assessed as late apoptotic cells at 10 uM incubated for 48 hrs by Annexin V-FITC/PI staining based flow cytometry analysis (reference value: 3.7 +/- 0.3 %); assay type: functional
U-87 MG [18] = assay: Inhibition of cell invasion in human U-87 MG cells at 5 to 10 uM incubated for 48 hrs by crystal violet staining based fluorescent microscope analysis; assay type: functional; settings: U-87MG ATCC, dose 5-10 µM
U-251 [19] = assay: Induction of apoptosis in human U-251 cells assessed as late apoptotic cells at 10 uM incubated for 48 hrs by Annexin V-FITC/PI staining based flow cytometry analysis (reference value: 1.3 +/- 0.6%); assay type: functional
U-87 MG [20] = assay: Induction of apoptosis in human U-87 MG cells assessed as total apoptotic cells at 2 uM incubated for 48 hrs by Annexin V-FITC/PI staining based flow cytometry analysis (reference value: 16 +/- 1%); assay type: functional, U-87MG ATCC
U-87 MG [21] = assay: Induction of apoptosis in human U-87 MG cells assessed as late apoptotic cells at 5 uM incubated for 48 hrs by Annexin V-FITC/PI staining based flow cytometry analysis (reference value: 11 +/- 1%); assay type: functional, U-87MG ATCC
U-251 [22] = assay: Induction of apoptosis in human U-251 cells assessed as early apoptotic cells at 2 uM incubated for 48 hrs by Annexin V-FITC/PI staining based flow cytometry analysis (reference value: 1.5 +/- 0.4 %); assay type: functional
U-87 MG [23] = assay: Induction of apoptosis in human U-87 MG cells assessed as early apoptotic cells at 5 uM incubated for 48 hrs by Annexin V-FITC/PI staining based flow cytometry analysis (reference value: 1.1 +/- 0.6 %); assay type: functional, U-87MG ATCC
U-251 [24] = assay: Induction of apoptosis in human U-251 cells assessed as total apoptotic cells at 2 uM incubated for 48 hrs by Annexin V-FITC/PI staining based flow cytometry analysis (reference value: 2.8 +/- 0.3%); assay type: functional
T98G [25] = assay: Induction of apoptosis in human T98G cells assessed as late apoptotic cells at 5 uM incubated for 48 hrs by Annexin V-FITC/PI staining based flow cytometry analysis (reference value: 3.7 +/- 0.3 %); assay type: functional
U-251 [26] = assay: Induction of apoptosis in human U-251 cells assessed as total apoptotic cells at 10 uM incubated for 48 hrs by Annexin V-FITC/PI staining based flow cytometry analysis (reference value: 2.8 +/- 0.3%); assay type: functional
U-87 MG [27] = assay: Induction of apoptosis in human U-87 MG cells assessed as late apoptotic cells at 10 uM incubated for 48 hrs by Annexin V-FITC/PI staining based flow cytometry analysis (reference value: 11 +/- 1%); assay type: functional, U-87MG ATCC
T98G [28] = assay: Induction of apoptosis in human T98G cells assessed as late apoptotic cells at 2 uM incubated for 48 hrs by Annexin V-FITC/PI staining based flow cytometry analysis (reference value: 3.7 +/- 0.3 %); assay type: functional
T98G [29] = assay: Inhibition of cell invasion in human T98G cells at 5 to 10 uM incubated for 48 hrs by crystal violet staining based fluorescent microscope analysis; assay type: functional; settings: dose 5-10 µM
U-87 MG [30] = assay: Inhibition of cell migration in human U-87 MG cells incubated for 48 hrs by inverted optical microscope based wound healing assay; assay type: functional; settings: U-87MG ATCC
U-87 MG [31] = assay: Induction of apoptosis in human U-87 MG cells assessed as early apoptotic cells at 10 uM incubated for 48 hrs by Annexin V-FITC/PI staining based flow cytometry analysis (reference value: 1.1 +/- 0.6 %); assay type: functional, U-87MG ATCC
T98G [32] = assay: Induction of apoptosis in human T98G cells assessed as total apoptotic cells at 5 uM incubated for 48 hrs by Annexin V-FITC/PI staining based flow cytometry analysis (reference value: 6.4 +/- 0.8 %); assay type: functional
U-251 [33] = assay: Induction of apoptosis in human U-251 cells assessed as early apoptotic cells at 10 uM incubated for 48 hrs by Annexin V-FITC/PI staining based flow cytometry analysis (reference value: 1.5 +/- 0.4 %); assay type: functional
U-251 [34] = assay: Induction of apoptosis in human U-251 cells assessed as late apoptotic cells at 5 uM incubated for 48 hrs by Annexin V-FITC/PI staining based flow cytometry analysis (reference value: 1.3 +/- 0.6%); assay type: functional
T98G [35] = assay: Induction of apoptosis in human T98G cells assessed as early apoptotic cells at 2 uM incubated for 48 hrs by Annexin V-FITC/PI staining based flow cytometry analysis (reference value: 2.7 +/- 0.5 %); assay type: functional
T98G [36] = assay: Antiproliferative activity against human T98G cells assessed as inhibition of cell growth incubated for 48 hrs by MTT assay; assay type: functional, cell-based
T98G [37] = assay: Induction of apoptosis in human T98G cells assessed as early apoptotic cells at 5 uM incubated for 48 hrs by Annexin V-FITC/PI staining based flow cytometry analysis (reference value: 2.7 +/- 0.5 %); assay type: functional
T98G [38] = assay: Induction of apoptosis in human T98G cells assessed as early apoptotic cells at 10 uM incubated for 48 hrs by Annexin V-FITC/PI staining based flow cytometry analysis (reference value: 2.7 +/- 0.5 %); assay type: functional
T98G [39] = assay: Induction of apoptosis in human T98G cells assessed as total apoptotic cells at 2 uM incubated for 48 hrs by Annexin V-FITC/PI staining based flow cytometry analysis (reference value: 6.4 +/- 0.8 %); assay type: functional

Structure (SMILES): CC(=O)O[C@@H]1C[C@]23O[C@H]2C2=C(C(=O)CC(C)(C)O2)[C@@H](O)[C@@H]3OC1(C)C
Activity (U-251 [1]): inactive
Activity (U-87 MG [2]; U-87MG ATCC): inactive
Activity (T98G [3]): inactive

Structure (SMILES): CC1(C)CC(=O)c2cc3c(c(Cl)c2O1)C[C@@H](O)C(C)(C)O3
Activity (U-251 [1]): inactive
Activity (U-87 MG [2]; U-87MG ATCC): inactive
Activity (T98G [3]): inactive

Structure (SMILES): CC(=O)O[C@@H]1C[C@]23O[C@H]2[C@]2(O)CC(C)=CC(=O)C2=C[C@@H]3OC1(C)C
Activity (U-251 [1]): inactive
Activity (U-87 MG [2]; U-87MG ATCC): inactive
Activity (T98G [3]): inactive

Structure (SMILES): CC(=O)O[C@@H]1Cc2c(cc3c(c2O)OC(C)(C)CC3=O)OC1(C)C
Activity (U-251 [1]): inactive
Activity (U-87 MG [2]; U-87MG ATCC): inactive
Activity (T98G [3]): inactive

IC50 (U-251 [4]): 20 µM
IC50 (U-87 MG [7]): 6.8 µM
Structure (SMILES): C=C(C)C#C[C@]12O[C@H]1[C@@H]1OC(C)(C)[C@H](OC(C)=O)C[C@@]13O[C@H]3C2=O
Activity (U-87 MG [5]): 30%
Activity (U-87 MG [6]): 18%
Activity (U-251 [8]): 9%
Activity (U-251 [9]): 2%
Activity (U-87 MG [10]): 84%
inhibition (T98G [11]): Dose-Dependent Effect
Activity (U-251 [12]): 3.1%
inhibition (U-251 [13]): Active
Activity (U-87 MG [14]): 3.6%
Activity (T98G [15]): 11%
Activity (U-251 [1]): >50%
inhibition (U-251 [16]): Dose-Dependent Effect
Activity (T98G [17]): 6.5%
inhibition (U-87 MG [18]): Active
Activity (U-251 [19]): 5.4%
Activity (U-87 MG [20]): 22%
Activity (U-87 MG [21]): 14%
Activity (U-251 [22]): 1.2%
Activity (U-87 MG [2]): >50%
Activity (U-87 MG [23]): 16%
Activity (U-251 [24]): 3.2%
Activity (T98G [25]): 5.1%
Activity (U-251 [26]): 10%
Activity (U-87 MG [27]): 67%
Activity (T98G [28]): 4.1%
inhibition (T98G [29]): Active
inhibition (U-87 MG [30]): Dose-Dependent Effect
Activity (U-87 MG [31]): 17%
Activity (T98G [32]): 7.7%
Activity (U-251 [33]): 5%
Activity (U-251 [34]): 6%
Activity (T98G [35]): 1.5%
IC50 (T98G [36]): 13 µM
Activity (T98G [37]): 2.6%
Activity (T98G [38]): 4.8%
Activity (T98G [39]): 5.6%
